Measurements: patent publication US4272437A, “Antibacterial agents, and 4-thio azetidinone intermediates” (priority 1979, dated 1981)
In brackets after ≈: the same amount, converted by molar mass. Where two headings read alike, the source gives them in different places.

Assays:
Str. pneumoniae A-9585 = experiment: MIC, tube dilution, Streptococcus pneumoniae A9585; format: cell-based; conditions: Streptococcus pneumoniae, A9585, Str. pneumoniae A9585; overnight 37° C., Nutrient Broth; read-out: Minimum Inhibitory Concentration (M.I.C.)
Text: (§1) Representative compounds of the present invention were subjected to in vitro antibiotic screening against a variety of microorganisms.

Str. pyogenes A-9604 = experiment: MIC, tube dilution, Streptococcus pyogenes A9604; format: cell-based; conditions: Streptococcus pyogenes, A9604, Str. pyogenes A9604; overnight 37° C., Nutrient Broth; read-out: Minimum Inhibitory Concentration (M.I.C.)
Text: as §1

Staph. aureus A-9537 = experiment: MIC, tube dilution, Staphylococcus aureus A9537; format: cell-based; conditions: Staphylococcus aureus, A9537, Staph. aureus A9537; overnight 37° C., Nutrient Broth; read-out: Minimum Inhibitory Concentration (M.I.C.)
Text: as §1

[1] = system: Staph. aureus A-9537 and 50% serum; experiment: MIC, tube dilution, Staph. aureus A9537 + 50% serum; format: cell-based, Staphylococcus aureus; conditions: Staphylococcus aureus, overnight 37° C., read-out: Minimum Inhibitory Concentration (M.I.C.)
Text: as §1

[2] = system: Staph. aureus (Pen-Res) A-9606; experiment: MIC, tube dilution, Staphylococcus aureus A9606 (Pen-Res); format: cell-based; conditions: Staphylococcus aureus, Staph. aureus A9606 (Pen-Res); overnight 37° C.; read-out: Minimum Inhibitory Concentration (M.I.C.)
Text: as §1

[3] = system: Staph. aureus (Meth-Res) A-15097; experiment: MIC, tube dilution, Staphylococcus aureus A15097 (Meth-Res); format: cell-based; conditions: Staphylococcus aureus, Staph. aureus A15097 (Meth-Res); overnight 37° C.; read-out: Minimum Inhibitory Concentration (M.I.C.)
Text: as §1

Str. faecalis A-20688 = experiment: MIC, tube dilution, Streptococcus faecalis A20688; format: cell-based; conditions: Enterococcus faecalis, A20688, Str. faecalis A20688; overnight 37° C.; read-out: Minimum Inhibitory Concentration (M.I.C.)
Text: as §1

E. coli A-15119 = experiment: MIC, tube dilution, Escherichia coli A15119; format: cell-based; conditions: Escherichia coli, A15119, E. coli A15119; overnight 37° C.; read-out: Minimum Inhibitory Concentration (M.I.C.)
Text: as §1

E. coli A-20341-1 = experiment: MIC, tube dilution, Escherichia coli A20341-1; format: cell-based; conditions: Escherichia coli, A203411, E. coli A20341-1; overnight 37° C.; read-out: Minimum Inhibitory Concentration (M.I.C.)
Text: as §1

K. pneumoniae A-15130 = experiment: MIC, tube dilution, Klebsiella pneumoniae A15130; format: cell-based; conditions: Klebsiella pneumoniae, A15130, K. pneumoniae A15130; overnight 37° C.; read-out: Minimum Inhibitory Concentration (M.I.C.)
Text: as §1

[4] = system: Klebsiella species A20468; experiment: MIC, tube dilution, Klebsiella species A20468; format: cell-based; conditions: Klebsiella species (K. pneumoniae) A20468; overnight 37° C.; read-out: Minimum Inhibitory Concentration (M.I.C.)
Text: as §1

Pr. mirabilis A-9900 = experiment: MIC, tube dilution, Proteus mirabilis A9900; format: cell-based; conditions: Proteus mirabilis, A9900, Proteus mirabilis A9900; overnight 37° C.; read-out: Minimum Inhibitory Concentration (M.I.C.)
Text: as §1

Pr. morganii A-15153 = experiment: MIC, tube dilution, Proteus morganii A15153; format: cell-based; conditions: Morganella morganii, A15153, Proteus morganii A15153; overnight 37° C.; read-out: Minimum Inhibitory Concentration (M.I.C.)
Text: as §1

Ser. marcescens A-20019 = experiment: MIC, tube dilution, Serratia marcescens A20019; format: cell-based; conditions: Serratia marcescens, A20019, Serratia marcescens A20019; overnight 37° C.; read-out: Minimum Inhibitory Concentration (M.I.C.)
Text: as §1

Ent. cloacae A-9659 = experiment: MIC, tube dilution, Enterobacter cloacae A9659; format: cell-based; conditions: Enterobacter cloacae, A9659, Enterobacter cloacae A9659; overnight 37° C.; read-out: Minimum Inhibitory Concentration (M.I.C.)
Text: as §1

Ent. cloacae A-9656 = experiment: MIC, tube dilution, Enterobacter cloacae A9656; format: cell-based; conditions: Enterobacter cloacae, A9656, Enterobacter cloacae A9656; overnight 37° C.; read-out: Minimum Inhibitory Concentration (M.I.C.)
Text: as §1

Ps. aeruginosa A-9843A = experiment: MIC, tube dilution, Pseudomonas aeruginosa A9843A; format: cell-based; conditions: Pseudomonas aeruginosa, A9843A, read-out: Minimum Inhibitory Concentration (M.I.C.), Pseudomonas aeruginosa A9843A; overnight 37° C.
Text: as §1

Ps. aeruginosa A-21213 = experiment: MIC, tube dilution, Pseudomonas aeruginosa A21213; format: cell-based; conditions: overnight 37° C., read-out: Minimum Inhibitory Concentration (M.I.C.)
Text: as §1

Proteus rettgeri A21203 = experiment: MIC, tube dilution, Proteus rettgeri A21203; format: cell-based; conditions: Providencia rettgeri, A21203, Proteus rettgeri A21203; overnight 37° C.; read-out: Minimum Inhibitory Concentration (M.I.C.)
Text: as §1

Proteus vulgaris A21559 = experiment: MIC, tube dilution, Proteus vulgaris A21559; format: cell-based; conditions: Proteus vulgaris, A21559, Proteus vulgaris A21559; overnight 37° C.; read-out: Minimum Inhibitory Concentration (M.I.C.)
Text: as §1

S. aureus A9537 = experiment: In vivo protection of mice, lethal infection with S. aureus A9537; conditions: Staphylococcus aureus, A9537, im, IM, 2 treatments, read-out: PD50
Method: Representative compounds of the present invention were also tested in vivo in mice and their PD50 (dose of compound in mg/kg required to protect 50% of the treated mice against an otherwise lethal infection of a micro-organism) values determined with respect to the test organisms shown below.

[5] = Mouse blood levels after intramuscular administration; format: in vivo; conditions: average of 6 mice, read-out: Mouse blood level
Method: Mouse blood levels after intramuscular administration of representative compounds of the present invention were determined and are reported in the table below.

[6] = Pseudomonas aeruginosa, A21213, Pseudomonas aeruginosa A21213

| Compound | MIC (Str. pneumoniae A-9585) [µg/mL] | MIC (Str. pyogenes A-9604) [µg/mL] | MIC (Staph. aureus A-9537) [µg/mL] | MIC [1] [µg/mL] | MIC [2] [µg/mL] | MIC [3] [µg/mL] | MIC (Str. faecalis A-20688) [µg/mL] | MIC (E. coli A-15119) [µg/mL] | MIC (E. coli A-20341-1) [µg/mL] | MIC (K. pneumoniae A-15130) [µg/mL] | MIC [4] [µg/mL] | MIC (Pr. mirabilis A-9900) [µg/mL] | MIC (Pr. morganii A-15153) [µg/mL] | MIC (Ser. marcescens A-20019) [µg/mL] | MIC (Ent. cloacae A-9659) [µg/mL] | MIC (Ent. cloacae A-9656) [µg/mL] | MIC (Ps. aeruginosa A-9843A) [µg/mL] | MIC (Ps. aeruginosa A-21213; [6]) [µg/mL] | MIC (Proteus rettgeri A21203) [µg/mL] | MIC (Proteus vulgaris A21559) [µg/mL] | other results |
| --- | --- | --- | --- | --- | --- | --- | --- | --- | --- | --- | --- | --- | --- | --- | --- | --- | --- | --- | --- | --- | --- |
| NCCOCC1=C(C(=O)O)N2C(=O)CC2S1 (stereo not shown) [Example 86, 2-(2-Aminoethoxymethyl)penem-3-carboxylic Acid] | 0.13 (≈ 0.532 µM) | 0.13 (≈ 0.532 µM) | 0.13 (≈ 0.532 µM) | 1 | 32 (≈ 131 µM) | 125 (≈ 512 µM) | 32 (≈ 131 µM) | 2 (≈ 8.19 µM) | 8 (≈ 32.8 µM) | 4 (≈ 16.4 µM) | > 125 | 2 (≈ 8.19 µM) | 8 (≈ 32.8 µM) | 2 (≈ 8.19 µM) | 8 (≈ 32.8 µM) | 4 (≈ 16.4 µM) | 63 (≈ 258 µM) | 125 (≈ 512 µM) | 2 (≈ 8.19 µM) | 8 (≈ 32.8 µM) | ED50 (S. aureus A9537; 1 × 10^6 organisms): 1.9 mg/kg; concentration at 10 min ([5]; 10 minutes after IM 40 mg/kg): 36000 ng/mL; concentration at 20 min ([5]; 20 minutes after IM 40 mg/kg): 26300 ng/mL; concentration at 0.5 h ([5]; 30 minutes after IM 40 mg/kg): 16500 ng/mL; concentration at 0.75 h ([5]; 45 minutes after IM 40 mg/kg): 7500 ng/mL; concentration at 1 h ([5]; 60 minutes after IM 40 mg/kg): 4000 ng/mL; concentration at 1.5 h ([5]; 90 minutes after IM 40 mg/kg): < 3100 ng/mL; concentration at 2 h ([5]; 120 minutes after IM 40 mg/kg): < 3100 ng/mL |
| N#CCCC(N)C1=C(C(=O)O)N2C(=O)C[C@H]2S1 (stereo partly shown) [Example 83, 2-(1'-Amino-3'-cyanopropyl)-penem-3-carboxylic Acid] | 0.06 (≈ 0.237 µM) | 0.13 (≈ 0.513 µM) | 0.5 (≈ 1.97 µM) | 8 | 32 (≈ 126 µM) | > 125 | 125 (≈ 494 µM) | 2 (≈ 7.9 µM) | 16 (≈ 63.2 µM) | 8 (≈ 31.6 µM) | > 125 | 2 (≈ 7.9 µM) | 4 (≈ 15.8 µM) | 4 (≈ 15.8 µM) | 16 (≈ 63.2 µM) | 4 (≈ 15.8 µM) | 63 (≈ 249 µM) | 63 (≈ 249 µM) | 4 (≈ 15.8 µM) | 8 (≈ 31.6 µM) | ED50 (S. aureus A9537; 1.1 × 10^6 organisms): 3.3 mg/kg |
| CCCC(N)C1=C(C(=O)O)N2C(=O)CC2S1 [Example 82, (1'R,5R and 1'S,5S) and (1'R,5S and 1'S,5R) 2-(1'-Aminobutyl)-penem-3-carboxylic Acid] | 0.016 (≈ 0.066 µM) | 0.016 (≈ 0.066 µM) | 0.25 (≈ 1.03 µM) | 4 | 16 (≈ 66 µM) | 4 (≈ 16.5 µM) | 63 (≈ 260 µM) | 8 (≈ 33 µM) | 32 (≈ 132 µM) | 32 (≈ 132 µM) | > 125 | 4 (≈ 16.5 µM) | 16 (≈ 66 µM) | 16 (≈ 66 µM) | 63 (≈ 260 µM) | 32 (≈ 132 µM) | > 125 |  | 8 (≈ 33 µM) | 8 (≈ 33 µM) | MIC (Ps. aeruginosa A-21213; Pseudomonas aeruginosa A21213): > 125 µg/mL; ED50 (S. aureus A9537; 1 × 10^6 organisms): 1.25 mg/kg |
